The values that follow come from PMC5295395, “Inhibition of PlexA1-mediated brain tumor growth and tumor-associated angiogenesis using a transmembrane domain targeting peptide” (Oncotarget, 2016).

For one assay, the system named is NRP1/PlexA1 complexes. Description: in situ proximity ligation assay (Duo-link), NRP1/PlexA1 complexes in U373MG cells. Conditions: U373MG cells, MTP-PlexA1 10^−7 M, vs vehicle. Format: cell-based, human. The protocol:
“Zip sequence” is the positive control of dimerization and “Empty” is the negative control of this bacterial system. (C, D) SPR assay (Biacore) to quantify MTP-PlexA1 interactions with PLexA1, NRP1 and VEGFR2 TMDs. (E) Proximity ligation assay showing that MTP-PlexA1 (10^−7 M) decreases the number of PLexA1-NRP1 interactions (green dots) in U373MG cells (scale bar = 20 μm).
Additional specificity controls were performed using a mutated version of MTP-PlexA1 (in which 3 glycines of the GxxxGxxxG motif were replaced by 3 valines or MTP-Neu, an anti-breast cancer peptide known to not interact with PlexA1) as described in Supplementary Figure S2. […] Similar results were obtained when cells were exposed to VEGF (39.4% NRP1 and 35.4% PlexA4, Figure 4B).
Supplementary Figure S2: Specificity controls were performed using a mutated version of MTP-PlexA1 […]
LVIVAVLIAYKRK). Such mutations have been previously shown to be sufficient to lose activity of NRP1 antagonist membrane domain targeting peptide (Roth et al., 2008 Mol Biol Cell). We also used MTP-Neu, a transmembrane domain targeting peptide known to […]
M, a concentration previously shown to produce maximal antagonist activity of the peptide. Additionally, we also repeated the in vitro angiogenic assay on matrigel using HUVEC cells. […]
to MTP-PlexA1. These experiments confirmed the specificity of MTP-PlexA1.
(1 picture or pasted object on this page, not shown here)

The next assay concerns NCH644 cells. In words: MTS proliferation assay, NCH644 glioma stem cells. The assay is classed as cell-based, human. Conditions: NCH644, p < 0.0001. (In general: Formazan colour is commonly taken as a measure of viable cells.)

As to “TLPAIVGIGGGGGLLLLVIVAVLIAYKRK [MTP-PlexA1, synthetic transmembrane peptide mimicking the TMD of PlexA1]”, the “reduction of NRP1/PlexA1 complexes” value in the assay on NRP1/PlexA1 complexes worked out at 29.4%. Moreover, the “change of proliferation of glioma stem cells” value in the assay with NCH644 cells is recorded as −10%.
